Measurements from US11472803B2, “7-substituted 1-aryl-naphthyridine-3-carboxylic acid amides and use thereof” (Bayer Aktiengesellschaft, priority 2016, dated 2022).

Key:
human M2 receptor [1] = target: T1, human M2 receptor (Homo sapiens, UniProt P08172); assay: Functional M2-GIRK1/4 activation test: positive cooperativity (α factor), shift of acetylcholine dose-response curve; type: cell-based; details: Allosteric EC50 shift of acetylcholine 8-point dose-response curve; CHO-DUKX-M2-GIRK cells; α>1 = positive cooperativity
T1 construct: expressed in transfected cells; host or cells: CHO-DUKX (CHO-DUKX-M2-GIRK)
T1 sequence (P08172 1-466): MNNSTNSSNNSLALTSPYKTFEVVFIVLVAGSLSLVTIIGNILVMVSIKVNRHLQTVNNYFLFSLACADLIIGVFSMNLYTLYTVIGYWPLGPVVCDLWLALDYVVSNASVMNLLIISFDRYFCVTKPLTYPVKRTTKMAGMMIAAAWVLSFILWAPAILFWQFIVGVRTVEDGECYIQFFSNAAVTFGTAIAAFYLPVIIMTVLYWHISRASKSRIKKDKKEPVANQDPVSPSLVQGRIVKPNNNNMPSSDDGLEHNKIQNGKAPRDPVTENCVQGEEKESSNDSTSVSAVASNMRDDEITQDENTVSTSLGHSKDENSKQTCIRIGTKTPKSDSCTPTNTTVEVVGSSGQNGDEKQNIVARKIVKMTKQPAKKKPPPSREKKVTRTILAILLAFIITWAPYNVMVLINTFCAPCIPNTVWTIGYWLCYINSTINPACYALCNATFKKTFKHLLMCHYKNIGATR
From the text: The binding of orthosteric agonists (endogenous ligand: acetylcholine) to the M2 receptor leads to receptor activation or a change in conformation of the receptor in the manner of a shift in equilibrium in favour of the active receptor conformation.
The agonist-induced change in conformation of the M2 receptor results in a Gαi protein activation. […] Under physiological conditions, the result is then a selective efflux of potassium from the cell along the electrochemical gradient. […] The extent of hyperpolarization can therefore be regarded as a measure of the activation of the M2 receptor.
The test cell used is a recombinant CHO-DUKX cell line which has been stably transfected with cDNA coding for the human M2 receptor and with cDNA coding for both GIRK1/4 subunits (CHO-DUKX-M2-GIRK). The transmembrane potential, or the relative changes in the transmembrane potential as a function of substance addition or M2 activation, is determined by means of a voltage-sensitive dye (FLIPR Membrane Potential Assay Kit Blue, Molecular Devices #R8034) and the measurement of cell fluorescence using a proprietary fluorescence imaging instrument.
In accordance with the desired test concentrations, the substances were pre-diluted in loading buffer (see above).
The sowing medium consisted of MEM alpha medium (supplemented with 5% PCS, 2% Glutamax, no genticin).
For the particular measurement, the medium was removed and the cells were laden with the volt-age-sensitive dye for at least 6 min at room temperature (30 μl of loading buffer per 384-well). This was followed, in a first measurement, by the determination of the resting transmembrane potential for a period of 5 sec in 1 sec increments. Thereafter, 10 μl in each case of the test substances diluted in loading buffer are added, followed by a second measurement to determine the transmembrane potential for a period of 50 sec in 1 sec increments.
Finally, the cells are admixed with 10 μl of agonist solution (acetylcholine dissolved in loading buffer). In contrast to the EC50 determination of the test substances (see B-1.1), however, this is not done using one acetylcholine concentration; instead, every concentration of the test substance is combined with an acetylcholine 8-point dose-response curve. […] The M2-mediated GIRK1/4 activation or hyperpolarization is then monitored in a third measurement over a period of 60 sec in 1 sec increments. The shift in the acetylcholine dose-response curve in the presence of increasing concentrations of the test substance is analysed and quantified by means of GraphPad PRISM (Allosteric EC50 shift). […] Positive cooperativity is the hallmark of a positive allosteric modulator. […] The greater the magnitude of the α value, the greater the extent of cooperativity between orthosteric and allosteric.

human M2 receptor [2] = target: T1, human M2 receptor; assay: Functional M2-GIRK1/4 activation test: allosteric potency (EC50) and efficiency at EC20 acetylcholine; type: cell-based; details: CHO-DUKX-M2-GIRK cells; for EC50: voltage-sensitive dye, acetylcholine at EC20, in some cases mean of two or more determinations; for Emax / Efficiency: boosting of the acetylcholine effect at EC20 acetylcholine concentration
Outline: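 Positive allosteric modulation measured as boosting of an EC20 acetylcholine response: hyperpolarization via GIRK1/4 in CHO-DUKX-M2-GIRK cells, monitored by membrane-potential dye fluorescence over 60 s after agonist, compound preadded. Hill-function fit gives EC50 and efficiency.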

| SMILES | Cooperativity (alpha factor) (human M2 receptor [1]) | EC50 (human M2 receptor [2]) | Emax (human M2 receptor [2]) | Efficiency (human M2 receptor [2]) |
| --- | --- | --- | --- | --- |
| CC(NC(=O)c1cn(-c2c(F)cc(F)cc2F)c2nc(N3C[C@@H](O)[C@H](O)C3)c(F)cc2c1=O)C(F)(F)C(F)(F)F (single isomer, unassigned) [Example 10] | 70 |  |  |  |
| CC(C)(CC(F)(F)F)NC(=O)c1cn(-c2c(F)cc(F)cc2F)c2nc(N3C[C@@H](O)[C@H](O)C3)c(F)cc2c1=O [Example 13, 7-[(3R,4R)-3,4-dihydroxypyrrolidin-1-yl]-6-fluoro-4-oxo-N-(4,4,4-trifluoro-2-methylbutan-2-yl)-1-(2,4,6-trifluorophenyl)-1,4-dihydro-1,8-naphthyridine-3-carboxamide] | 49 | 6.2 nM | 94% |  |
| CC(C)(CC(F)(F)F)NC(=O)c1cn(-c2c(F)cccc2F)c2nc(N3C[C@@H](O)[C@H](O)C3)c(F)cc2c1=O [Example 1, 1-(2,6-Difluorophenyl)-7-[(3R,4R)-3,4-dihydroxypyrrolidin-1-yl]-6-fluoro-4-oxo-N-(4,4,4-tri-fluoro-2-methylbutan-2-yl)-1,4-dihydro-1,8-naphthyridine-3-carboxamide] | 35 | 21 nM | 92% |  |
| CC(NC(=O)c1cn(-c2c(F)cc(F)cc2F)c2nc(N3CCC(O)C(O)C3)c(F)cc2c1=O)C(F)(F)C(F)(F)F (single isomer, unassigned) [Example 182, 7-(3,4-Dihydroxypiperidin-1-yl)-6-fluoro-4-oxo-N-(3,3,4,4,4-pentafluorobutan-2-yl)-1-(2,4,6-trifluorophenyl)-1,4-dihydro-1,8-naphthyridine-3-carboxamide] | 27 | 8.8 nM | 100% |  |
| CC(C)(NC(=O)c1cn(-c2c(F)cc(F)cc2F)c2nc(N3C[C@@H](O)[C@H](O)C3)c(F)cc2c1=O)C(F)F [Example 22, N-(1,1-difluoro-2-methylpropan-2-yl)-7-[(3R,4R)-3,4-dihydroxypyrrolidin-1-yl]-6-fluoro-4-oxo-1-(2,4,6-trifluorophenyl)-1,4-dihydro-1,8-naphthyridine-3-carboxamide] | 42 | 10 nM | 95% |  |
| CCN(CC(C)O)c1nc2c(cc1F)c(=O)c(C(=O)N[C@@H](C1CC1)C(F)(F)F)cn2-c1c(F)cc(F)cc1F (mixture of isomers) [Example 65, N-[(1S)-1-Cyclopropyl-2,2,2-trifluoroethyl]-7-[ethyl(2-hydroxypropyl)amino]-6-fluoro-4-oxo-1-(2,4,6-trifluorophenyl)-1,4-dihydro-1,8-naphthyridine-3-carboxamide] | 14 | 30 nM | 89% |  |
| CC1(O)CN(c2nc3c(cc2F)c(=O)c(C(=O)N[C@@H](C2CC2)C(F)(F)F)cn3-c2c(F)cc(F)cc2F)C1 [Example 53, N-[(1S)-1-Cyclopropyl-2,2,2-trifluoroethyl]-6-fluoro-7-(3-hydroxy-3-methylazetidin-1-yl)-4-oxo-1-(2,4,6-trifluorophenyl)-1,4-dihydro-1,8-naphthyridine-3-carboxamide] | 30 | 16 nM | 100% |  |
| CCC(C)(C)NC(=O)c1cn(-c2c(F)cc(F)cc2F)c2nc(N3C[C@@H](O)[C@H](O)C3)c(F)cc2c1=O [Example 89, 7-[(3R,4R)-3,4-dihydroxypyrrolidin-1-yl]-6-fluoro-N-(2-methylbutan-2-yl)-4-oxo-1-(2,4,6-tri-fluorophenyl)-1,4-dihydro-1,8-naphthyridine-3-carboxamide] | 44 | 4.75 nM | 100% |  |
| CC(C)(C)NC(=O)c1cn(-c2c(F)cc(F)cc2F)c2nc(N3C[C@@H](O)[C@H](O)C3)c(F)cc2c1=O [Example 90, N-tert-Butyl-7-[(3R,4R)-3,4-dihydroxypyrrolidin-1-yl]-6-fluoro-4-oxo-1-(2,4,6-trifluoro-phenyl)-1,4-dihydro-1,8-naphthyridine-3-carboxamide] | 30 | 18.5 nM | 95% |  |
| CC(NC(=O)c1cn(-c2c(F)cc(F)cc2F)c2nc(N3CC(CO)(CO)C3)c(F)cc2c1=O)C(F)(F)C(F)(F)F (racemic) [Example 169, 7-[3,3-Bis(hydroxymethyl)azetidin-1-yl]-6-fluoro-4-oxo-N-[3,3,4,4,4-pentafluorobutan-2-yl]-1-(2,4,6-trifluorophenyl)-1,4-dihydro-1,8-naphthyridine-3-carboxamide] | 34 | 3.8 nM |  | 99% |
| CC[C@@H](NC(=O)c1cn(-c2c(F)cc(F)cc2F)c2nc(N3C[C@@H](O)[C@@H](O)C3)c(F)cc2c1=O)C(F)(F)F [Example 155, 7-[(3R,4S)-3,4-Dihydroxypyrrolidin-1-yl]-6-fluoro-4-oxo-N-[(2R)-1,1,1-trifluorobutan-2-yl]-1-(2,4,6-trifluorophenyl)-1,4-dihydro-1,8-naphthyridine-3-carboxamide] |  | 11 nM | 100% |  |
| O=C(NC(C1CC1)C(F)(F)C(F)(F)F)c1cn(-c2c(F)cc(F)cc2F)c2nc(N3C[C@@H](O)[C@H](O)C3)c(F)cc2c1=O (single isomer, unassigned) [Example 202] |  | 1 nM |  | 100% |
| CC(C)(NC(=O)c1cn(-c2c(F)cc(F)cc2Cl)c2nc(N3C[C@@H](O)[C@H](O)C3)c(F)cc2c1=O)C(F)(F)F (single isomer, unassigned) [Example 50] |  | 2.5 nM |  | 60% |
| CN(C)c1nc2c(cc1F)c(=O)c(C(=O)NC(C(F)(F)F)C(F)(F)F)cn2-c1c(F)cc(F)cc1Cl [Example 180, 1-(2-Chloro-4,6-difluorophenyl)-7-(dimethylamino)-6-fluoro-N-(1,1,1,3,3,3-hexafluoropropan-2-yl)-4-oxo-1,4-dihydro-1,8-naphthyridine-3-carboxamide] |  | 8.5 nM | 86% |  |
| CC(C)[C@@H](C)NC(=O)c1cn(-c2c(F)cc(F)cc2F)c2nc(N3CC[C@H](O)C3)c(F)cc2c1=O [Example 120, 6-Fluoro-7-[(3S)-3-hydroxypyrrolidin-1-yl]-N-[(2R)-3-methylbutan-2-yl]-4-oxo-1-(2,4,6-tri-fluorophenyl)-1,4-dihydro-1,8-naphthyridine-3-carboxamide] |  | 10.5 nM | 96% |  |
| CN(CCO)c1nc2c(cc1F)c(=O)c(C(=O)N[C@@H](C1CC1)C(F)(F)F)cn2-c1c(F)cc(F)cc1F [Example 55, N-[(1S)-1-Cyclopropyl-2,2,2-trifluoroethyl]-6-fluoro-7-[(2-hydroxyethyl)(methyl)amino]-4-oxo-1-(2,4,6-trifluorophenyl)-1,4-dihydro-1,8-naphthyridine-3-carboxamide] |  | 25 nM | 96% |  |
| CCC(NC(=O)c1cn(-c2c(F)cc(F)cc2F)c2nc(N3CC(CO)(CO)C3)c(F)cc2c1=O)C(F)(F)C(F)(F)F (racemic) [Example 171, 7-[3,3-Bis(hydroxymethyl)azetidin-1-yl]-6-fluoro-4-oxo-N-[1,1,1,2,2-pentafluoropentan-3-yl]-1-(2,4,6-trifluorophenyl)-1,4-dihydro-1,8-naphthyridine-3-carboxamide] |  | 1.3 nM | 95% |  |
